Laboratory results: patent publication US12083181B2, “Bi-functional molecules to degrade circulating proteins” (Yale University, priority 2018, dated 2024)

Assays:
[1] = molecular target: T1, rhuMIF (Homo sapiens, UniProt P14174); test: Depletion of human MIF from supernatant of cultured HepG2 cells, sandwich ELISA; assay type: cell-based; conditions: 100 nM huMIF, after 24 hours
T1 sequence (P14174 2-115 limits assumed): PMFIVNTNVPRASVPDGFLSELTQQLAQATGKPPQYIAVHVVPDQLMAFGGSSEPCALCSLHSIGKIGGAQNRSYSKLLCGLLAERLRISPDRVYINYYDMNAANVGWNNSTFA
Protocol: In an experiment the results of which are presented in FIG. 3, bifunctional molecules were able to deplete human MIF from the supernatant of culture HepG2 cells. Briefly, human MIF (100 nM) was added to cell culture media in the presence of negative control MIF inhibitor 3w as well as bifunctional molecules MIF-NVS-PEGn-GN3, MIF-GN3, MIF-PEGn-Gn3, MIF-AcF3-1, MIF-AcF3-2, and MIF-AcF3-3. All molecules utilized a known MIF-binding ligand. Experiments were performed in 96 well plates (approximate surface area 0.3 cm^2). HepG2 cells were grown to 90% confluency in RPMI media, then washed with PBS (2×) and treated with serum-free media (optimem+0.1% BSA, +Pen/Strep) containing 100 nM huMIF (Cayman Chemical) and compounds (when applicable). Compounds were diluted from 1 mM stock solutions in DMSO. After 24 hours, a sample of the supernatant (2 uL) was collected, diluted 1:100, and analyzed for MIF content by sandwich ELISA (and incubated for 24 hours in the presence or absence of compound). Remaining MIF levels were determined by sandwich ELISA (biolegend monoclonal anti-MIF and biotinylated anti-MIF antibodies). Data represents the average of at least 3 biological replicates, and error bars represent a standard deviation. After 24 hours, up to 95.3% of the MIF had been depleted from cell culture media (in the case of MIF-AcF3-3).

[2] = molecular target: T1, rhuMIF; test: Depletion of injected human MIF from mice, serum sandwich ELISA; assay type: in vivo; conditions: nude mice injected with 5 μg recombinant human MIF
Protocol: Human MIF has a half-life of approximately 40 minutes in mice. In this experiment, human recombinant MIF (Cayman chemical) was co-injected into mice with an anti-DNP IgG, which was used as an injection positive control. In particular, nude mice were injected with 5 μg recombinant human MIF and 200 μg anti-DNP IgG as an injection control (FIG. 4). MIF-GN3 was then injected at the concentration shown and blood drawn every twenty minutes over the course of two hours. Serum was diluted 1:100 and analyzed for MIF content by sandwich ELISA (biolegend monoclonal anti-MIF and biotinylated anti-MIF antibodies).

[3] = molecular target: T1, rhuMIF; test: Trafficking of MIF internalized by HepG2 cells to lysosomes, immunofluorescence; assay type: cell-based; set-up: purchased Cayman Chemical; conditions: 100 nM rhuMIF, 200 nM compound, 12 hours
Protocol: In this experiment, cells were incubated with rhuMIF (Cayman) at a concentration of 100 nM with 200 nM MIF-GN3.

[4] = system: PC3 human prostate cancer cells; test: Mouse model of prostate cancer, tumor growth; assay type: in vivo; conditions: nude mice engrafted with PC3 cells, treatment initiated immediately
Text: In this experiment, nude mice were engrafted with PC3 human prostate cancer cells. Treatment was then initiated immediately with either a non-bifunctional MIF inhibitor (3w), an anti-MIF antibody, or MIF-GN3.

MIF depleted from cell culture media [1] [%]	serum huMIF levels ([2]; blood drawn over two hours, PBS control up to 150 ng/ml)	decrease in huMIF levels ([2]; versus PBS)	trafficking of internalized MIF to lysosomes [3]	SMILES	tumor growth [4]
95.3	–	–	–	O=C(CCOCC(COCCC(=O)NCCOCCOCCOCCOC[C@@]12CO[C@@H](O1)[C@H](NC(=O)C(F)(F)F)[C@@H](O)[C@H]2O)(COCCC(=O)NCCOCCOCCOCCOC[C@@]12CO[C@@H](O1)[C@H](NC(=O)C(F)(F)F)[C@@H](O)[C@H]2O)NC(=O)CCCOc1ccc2nc(-c3cn(-c4ccc(O)c(F)c4)nn3)ccc2c1)NCCOCCOCCOCCOC[C@@]12CO[C@@H](O1)[C@H](NC(=O)C(F)(F)F)[C@@H](O)[C@H]2O [MIF-AcF3-3]	–
–	up to 20 ng/ml	substantial decrease in huMIF levels	evidencing internalization in lysosomes	CC(=O)N[C@H]1[C@H](OCCOCCOCCNC(=O)CCOCC(COCCC(=O)NCCOCCOCCO[C@@H]2O[C@H](CO)[C@H](O)[C@H](O)[C@H]2NC(C)=O)(COCCC(=O)NCCOCCOCCO[C@@H]2O[C@H](CO)[C@H](O)[C@H](O)[C@H]2NC(C)=O)NC(=O)CNC(=O)CCCOc2ccc3nc(-c4cn(-c5ccc(O)c(F)c5)nn4)ccc3c2)O[C@H](CO)[C@H](O)[C@@H]1O [MIF-GN3]	showed a slowing of tumor growth
